Data published in paper PMC6746691 (European Journal of Drug Metabolism and Pharmacokinetics, 2019).

Tests used:
[1] = system: suspected/confirmed staphylococcal or other Gram-positive infection; assay: Clinical effectiveness; format: in vivo, hospitalized adults (patients); conditions: for Length of hospitalization: median [min–max]
[2] = Vancomycin treatment safety outcomes; format: in vivo, hospitalized adults (patients); conditions: for Neutropenia: absolute neutrophil counts < 1000/μL
[3] = Vancomycin clinical pharmacokinetics and serum concentrations; conditions: for AUC per TDM adjusted dose / AUC per initial dose: NONMEM; for AUC per TDM adjusted dose / t1/2 / AUC per initial dose / Initial vancomycin serum concentration, Peak / Initial vancomycin serum concentration, Trough-2 / Initial vancomycin serum concentration, Trough-1: median [IQR]; for Cl / Ke / Vd / t1/2: at treatment initiation; for Cl / Ke / Vd / Post-dose adjustment trough concentration: mean ± SD, SD; for AUC per initial dose: pre-TDM dose; for Initial vancomycin serum concentration, Peak / Initial vancomycin serum concentration, Trough-2 / Initial vancomycin serum concentration, Trough-1: pre-TDM; for Initial vancomycin serum concentration, Peak: 1–2 h post fourth dose infusion; for Initial vancomycin serum concentration, Trough-2: 30 min before the fifth dose; for Initial vancomycin serum concentration, Trough-1: 30 min before the fourth dose
[4] = peak–trough-monitoring group (n = 30)
[5] = trough-only-monitoring group (n = 35)

CN[C@H](CC(C)C)C(=O)N[C@H]1C(=O)N[C@@H](CC(N)=O)C(=O)N[C@H]2C(=O)N[C@H]3C(=O)N[C@H](C(=O)N[C@H](C(=O)O)c4cc(O)cc(O)c4-c4cc3ccc4O)[C@H](O)c3ccc(c(Cl)c3)Oc3cc2cc(c3O[C@@H]2O[C@H](CO)[C@@H](O)[C@H](O)[C@H]2O[C@H]2C[C@](C)(N)[C@H](O)[C@H](C)O2)Oc2ccc(cc2Cl)[C@H]1O [vancomycin]
Therapeutic failure [1, 4]: 7 (23.3) n (%)
Length of hospitalization [1, 4]: 15.5 [4–68.9] days
Therapeutic failure [1, 5]: 18 (51.4) n (%)
Therapeutic cure ([1]; trough-only-monitoring group (n = 35), clinical and/or microbiologic cure, intention-to-treat): 17 (48.6) n (%)
Length of hospitalization [1, 5]: 20 [6–117] days
All-cause mortality [2, 4]: 2 (6.7) n (%)
Neutropenia [2, 4]: 1 (3.3) n (%)
All-cause mortality [2, 5]: 3 (8.6) n (%)
Neutropenia [2, 5]: 3 (8.6) n (%)
AUC per TDM adjusted dose [3, 4]: 223 [168.82] mg*h/L
AUC per TDM adjusted dose [3, 5]: 270 [156.02] mg*h/L
Cl [3, 4]: 4.24 ± 2.20 L/h
Ke [3, 4]: 0.089 ± 0.051 h⁻¹
Vd [3, 4]: 51.14 ± 9.96 L
t1/2 [3, 4]: 7.23 [9.75] h
Cl [3, 5]: 4.15 ± 2.22 L/h
Ke [3, 5]: 0.094 ± 0.05 h⁻¹
Vd [3, 5]: 48.5 ± 10.7 L
t1/2 [3, 5]: 8.01 [11.12] h
Post-dose adjustment trough concentration [3, 4]: 15.6 ± 3.49 mg/L
AUC per initial dose [3, 4]: 228 [273.01] mg*h/L
AUC per initial dose [3, 5]: 227 [195.6] mg*h/L
Initial vancomycin serum concentration, Peak [3, 4]: 27.9 [17.8] mg/L
Initial vancomycin serum concentration, Peak [3, 5]: 25 [10] mg/L
Initial vancomycin serum concentration, Trough-2 [3, 4]: 8.9 [15.1] mg/L
Initial vancomycin serum concentration, Trough-2 [3, 5]: 10.6 [10.5] mg/L
Initial vancomycin serum concentration, Trough-1 [3, 4]: 8.4 [12.9] mg/L
Initial vancomycin serum concentration, Trough-1 [3, 5]: 9 [8.3] mg/L
Post-dose adjustment trough concentration [3, 5]: 16.8 ± 3.09 mg/L
